Data: PubChem BioAssay AID330 (DTP/NCI, 2004)
Where “and” joins values, the source holds several entries; their conditions need not be identical. Identical values can stand only once. Inconclusive results and toxic doses are left out. The calls were made as follows: active = survival T/C of 150% or more; inactive = T/C below 125% in these data.

System: P388 leukemia ip, CD2F1 mice, survival T/C
Experiment: NCI In Vivo Anticancer Drug Screen. Data for tumor model P388 Leukemia (intraperitoneal) in CD2F1 (CDF1) mice
Settings: endpoint: median survival time, higher = longer survival
In short: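 Mice carrying the transplanted tumor received test compound or vehicle. Survival was recorded in each group, and the value is the treated-group measurement divided by that of the vehicle-treated control group.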

[1] = dose: 100.0 mg/kg/injection, schedule: Q01DX001 (ip), vehicle: Klucel (hydroxypropylcellulose) (HPC)
[2] = dose: 200.0 mg/kg/injection, schedule: Q01DX001 (ip), vehicle: Klucel (hydroxypropylcellulose) (HPC)
[3] = dose: 400.0 mg/kg/injection, schedule: Q01DX001 (ip), vehicle: Klucel (hydroxypropylcellulose) (HPC)
[4] = dose: 25.0 mg/kg/injection, schedule: Q01DX009 (ip), vehicle: saline with Tween-80
[5] = dose: 50.0 mg/kg/injection, schedule: Q01DX009 (ip), vehicle: saline with Tween-80
[6] = dose: 50.0 mg/kg/injection, schedule: Q01DX009 (ip), vehicle: Klucel (hydroxypropylcellulose) (HPC)
[7] = dose: 100.0 mg/kg/injection, schedule: Q01DX009 (ip), vehicle: Klucel (hydroxypropylcellulose) (HPC)
[8] = dose: 200.0 mg/kg/injection, schedule: Q01DX009 (ip), vehicle: Klucel (hydroxypropylcellulose) (HPC)
[9] = dose: 50.0 mg/kg/injection, schedule: Q01DX005 (ip), vehicle: Klucel (hydroxypropylcellulose) (HPC)
[10] = dose: 100.0 mg/kg/injection, schedule: Q01DX005 (ip), vehicle: Klucel (hydroxypropylcellulose) (HPC)
[11] = dose: 200.0 mg/kg/injection, schedule: Q01DX005 (ip), vehicle: Klucel (hydroxypropylcellulose) (HPC)
[12] = dose: 100.0 mg/kg/injection, schedule: Q01DX009 (ip), vehicle: saline with Tween-80
[13] = dose: 100.0 mg/kg/injection, schedule: Q04DX003 (ip), vehicle: saline with Tween-80
[14] = dose: 200.0 mg/kg/injection, schedule: Q04DX003 (ip), vehicle: saline with Tween-80
[15] = dose: 400.0 mg/kg/injection, schedule: Q04DX003 (ip), vehicle: saline with Tween-80
[16] = dose: 50.0 mg/kg/injection, schedule: Q01DX009 (ip), vehicle: saline

Measured: T/C

CSC(=S)/N=c1/sccn1C
inactive: dose: 25.0 mg/kg/injection, schedule: Q04DX002 (ip), vehicle: saline with Tween-80 100 % of control | dose: 50.0 mg/kg/injection, schedule: Q04DX002 (ip), vehicle: saline with Tween-80 100 % of control | dose: 100.0 mg/kg/injection, schedule: Q04DX002 (ip), vehicle: saline with Tween-80 99 % of control

COc1ccc(-c2nn(C)c3c2C(=O)C=CC3=O)cc1OC
inactive: [1] 92 % of control | [2] 106 % of control | [3] 95 % of control

C/C(=N\NC(N)=O)c1cccc(/C(C)=N/NC(N)=O)n1
inactive: [4] 116 % of control | [5] 109 % of control and 118 % of control

CN=NNCc1ccccc1
inactive: dose: 1.56 mg/kg/injection, schedule: Q01DX005 (ip), vehicle: saline 100 % of control and 102 % of control | dose: 3.12 mg/kg/injection, schedule: Q01DX005 (ip), vehicle: saline 98 % of control and 103 % of control | dose: 6.25 mg/kg/injection, schedule: Q01DX005 (ip), vehicle: saline 102 % of control and 105 % of control | dose: 12.5 mg/kg/injection, schedule: Q01DX005 (ip), vehicle: saline 93 % of control

FC(F)(F)c1nc2nccnc2[nH]1
inactive: dose: 50.0 mg/kg/injection, schedule: Q04DX003 (ip), vehicle: saline 100 % of control | dose: 100.0 mg/kg/injection, schedule: Q04DX003 (ip), vehicle: saline 100 % of control | dose: 200.0 mg/kg/injection, schedule: Q04DX003 (ip), vehicle: saline 100 % of control

Cc1cnc(SC2C3CC4CC(C3)CC2C4)c(C)c1 (stereo not given)
inactive: [6] 99 % of control | [7] 94 % of control | [8] 88 % of control

O=C1C=Cc2ccc(O)cc2C1=O
inactive: dose: 1.25 mg/kg/injection, schedule: Q01DX009 (ip), vehicle: saline 100 % of control | dose: 1.25 mg/kg/injection, schedule: Q04DX003 (ip), vehicle: saline with Tween-80 90 % of control | dose: 2.5 mg/kg/injection, schedule: Q01DX009 (ip), vehicle: saline 110 % of control | dose: 2.5 mg/kg/injection, schedule: Q04DX003 (ip), vehicle: saline with Tween-80 109 % of control | dose: 5.0 mg/kg/injection, schedule: Q04DX003 (ip), vehicle: saline with Tween-80 109 % of control and 95 % of control

CCCCCC1(CCBr)C(=O)NC(=O)NC1=O
inactive: [9] 100 % of control | [10] 102 % of control | [11] 108 % of control

C/C(NCCc1ccccc1)=C1\CCOC1=O
inactive: dose: 50.0 mg/kg/injection, schedule: Q01DX001 (ip), vehicle: Klucel (hydroxypropylcellulose) (HPC) 101 % of control | [1] 96 % of control | [2] 104 % of control

NC(Cc1ccc2ccccc2c1Cl)C(=O)O (stereo not given)
inactive: [6] 102 % of control | [7] 100 % of control | [8] 100 % of control

Cc1ccc(S(=O)(=O)N/N=C/c2c(Cl)nc3n2CCS3)cc1
inactive: [1] 101 % of control | [2] 94 % of control | [3] 94 % of control

C/C(=N/NC(N)=O)c1ccc2c3c(cc(Br)c2c1)CCCC3
inactive: dose: 6.25 mg/kg/injection, schedule: Q01DX005 (ip), vehicle: saline with Tween-80 99 % of control | dose: 12.5 mg/kg/injection, schedule: Q01DX005 (ip), vehicle: saline with Tween-80 99 % of control | dose: 25.0 mg/kg/injection, schedule: Q01DX005 (ip), vehicle: saline with Tween-80 95 % of control | dose: 50.0 mg/kg/injection, schedule: Q01DX005 (ip), vehicle: saline with Tween-80 91 % of control

FC(F)(F)C1=C(C(F)(F)F)OP2(Oc3ccccc3)(O1)Oc1ccccc1O2
inactive: dose: 25.0 mg/kg/injection, schedule: Q04DX003 (ip), vehicle: suspension in saline 102 % of control | dose: 50.0 mg/kg/injection, schedule: Q04DX003 (ip), vehicle: suspension in saline 101 % of control | dose: 100.0 mg/kg/injection, schedule: Q04DX003 (ip), vehicle: suspension in saline 97 % of control

CCCN1COC(OCCN(CC)CC)C(C)(C)C1 (stereo not given)
inactive: [5] 108 % of control | [12] 113 % of control | dose: 200.0 mg/kg/injection, schedule: Q01DX009 (ip), vehicle: saline with Tween-80 107 % of control

CC(C)n1cc(C(C)(C)C)nc1SSc1nc(C(C)(C)C)cn1C(C)C
inactive: [9] 100 % of control | [10] 96 % of control

COC(=O)c1ccc(C(=S)SC)cc1
inactive: dose: 100.0 mg/kg/injection, schedule: Q04DX002 (ip), vehicle: saline 100 % of control | dose: 200.0 mg/kg/injection, schedule: Q04DX002 (ip), vehicle: saline 100 % of control | dose: 400.0 mg/kg/injection, schedule: Q04DX002 (ip), vehicle: saline 99 % of control

CC(C)OC(CCCl)c1ccc(Cl)cc1 (stereo not given)
inactive: [13] 109 % of control | [14] 100 % of control

Cc1nnc2sc(/C=C/c3ccccc3)nn12
inactive: [1] 101 % of control | [2] 102 % of control | [3] 101 % of control

O=C1CCC(n2cc(F)c(=O)[nH]c2=O)O1 (stereo not given)
inactive: dose: 25.0 mg/kg/injection, schedule: Q04DX003 (ip), vehicle: saline with Tween-80 105 % of control and 94 % of control | dose: 50.0 mg/kg/injection, schedule: Q04DX003 (ip), vehicle: saline with Tween-80 108 % of control and 95 % of control | [13] 101 % of control and 120 % of control and 95 % of control | [15] 103 % of control

CCC12OCC(C)(C)N1OC(=O)N2c1ccccc1 (stereo not given)
inactive: [9] 96 % of control | [10] 96 % of control | [11] 97 % of control

NC(=S)N/N=C/c1cc(Br)ccc1O
inactive: [13] 86 % of control | [14] 94 % of control | [15] 112 % of control

NS(=O)(=O)c1ccc(NC(=O)c2cccnc2Nc2cccc(Cl)c2)cc1
inactive: dose: 60.0 mg/kg/injection, schedule: Q01DX005 (ip), vehicle: saline with Tween-80 103 % of control | dose: 120.0 mg/kg/injection, schedule: Q01DX005 (ip), vehicle: saline with Tween-80 102 % of control | dose: 240.0 mg/kg/injection, schedule: Q01DX005 (ip), vehicle: saline with Tween-80 101 % of control

CC(=O)NO
inactive: [16] 104 % of control | dose: 100.0 mg/kg/injection, schedule: Q01DX009 (ip), vehicle: saline 96 % of control | dose: 200.0 mg/kg/injection, schedule: Q01DX009 (ip), vehicle: saline 103 % of control

CC12CC(OC(=O)[C@]1(C)O)[C@@H]([C@]1(O)CC[C@H]3[C@@H]4C[C@H]5O[C@]56[C@@H](O)C=CC(=O)[C@]6(C)[C@H]4CC[C@@]31C)C2 (stereo not given in full)
inactive: dose: 2.0 mg/kg/injection, schedule: Q01DX009 (ip), vehicle: saline + alcohol 100 % of control | dose: 4.0 mg/kg/injection, schedule: Q01DX005 (ip), vehicle: saline + alcohol 108 % of control and 120 % of control | dose: 4.0 mg/kg/injection, schedule: Q01DX009 (ip), vehicle: saline + alcohol 105 % of control | dose: 8.0 mg/kg/injection, schedule: Q01DX005 (ip), vehicle: saline + alcohol 110 % of control and 111 % of control | dose: 8.0 mg/kg/injection, schedule: Q01DX009 (ip), vehicle: saline + alcohol 96 % of control | dose: 16.0 mg/kg/injection, schedule: Q01DX005 (ip), vehicle: saline + alcohol 109 % of control and 111 % of control | dose: 16.0 mg/kg/injection, schedule: Q01DX009 (ip), vehicle: saline + alcohol 96 % of control | dose: 32.0 mg/kg/injection, schedule: Q01DX005 (ip), vehicle: saline + alcohol 107 % of control | dose: 32.0 mg/kg/injection, schedule: Q01DX009 (ip), vehicle: saline + alcohol 87 % of control

COC(=O)C1CCCC(Sc2ccccc2)C1=O (stereo not given)
inactive: [4] 101 % of control | [5] 101 % of control | [12] 109 % of control

CN1CCCC(Cc2ccccc2)S1(=O)=O (stereo not given)
inactive: dose: 100.0 mg/kg/injection, schedule: Q01DX001 (ip), vehicle: saline with Tween-80 98 % of control | dose: 200.0 mg/kg/injection, schedule: Q01DX001 (ip), vehicle: saline with Tween-80 99 % of control | dose: 400.0 mg/kg/injection, schedule: Q01DX001 (ip), vehicle: saline with Tween-80 98 % of control

C[n+]1c2ccccc2c(N=[N+]=[N-])c2ccccc21
inactive: dose: 6.25 mg/kg/injection, schedule: Q01DX009 (ip), vehicle: saline 100 % of control | dose: 12.5 mg/kg/injection, schedule: Q01DX009 (ip), vehicle: saline 98 % of control | dose: 25.0 mg/kg/injection, schedule: Q01DX009 (ip), vehicle: saline 105 % of control | [16] 109 % of control
